Test results reported in ChEMBL document CHEMBL1133517, “Design, radiosynthesis, and biodistribution of a new potent and selective ligand for in vivo imaging of the adenosine A(2A) receptor system using positron emission tomography” (J Med Chem, 2000).

Legend:
Rattus norvegicus [1] = species on record: Rattus norvegicus; experiment: Biodistribution in rat cerebellem after 60 min time interval; assay type: ADME, organism-based, Cerebellum; conditions: in vivo, 1 h
Rattus norvegicus [2] = species on record: Rattus norvegicus; experiment: Biodistribution in rat liver after 30 min time interval; assay type: ADME, organism-based; conditions: in vivo, 0.5 h
Rattus norvegicus [3] = species on record: Rattus norvegicus; experiment: Biodistribution in rat heart after 30 min time interval; assay type: ADME, organism-based; conditions: in vivo, 0.5 h
Rattus norvegicus [4] = species on record: Rattus norvegicus; experiment: Biodistribution in rat intestine after 60 min time interval; assay type: ADME, organism-based; conditions: in vivo, 1 h
Rattus norvegicus [5] = species on record: Rattus norvegicus; experiment: Biodistribution in rat thalamus after 60 min time interval; assay type: ADME, organism-based; conditions: in vivo, 1 h
Rattus norvegicus [6] = species on record: Rattus norvegicus; experiment: Biodistribution in rat pons after 90 min time interval; assay type: ADME, organism-based; conditions: in vivo, 1.5 h
Rattus norvegicus [7] = species on record: Rattus norvegicus; experiment: Biodistribution in rat anti-CTX after 5 min time interval; assay type: ADME, organism-based; conditions: in vivo
Rattus norvegicus [8] = species on record: Rattus norvegicus; experiment: Biodistribution in rat blood after 90 min time interval; assay type: ADME, organism-based; conditions: in vivo, 1.5 h
Rattus norvegicus [9] = species on record: Rattus norvegicus; experiment: Biodistribution in rat anti-CTX after 30 min time interval; assay type: ADME, organism-based; conditions: in vivo, 0.5 h
Rattus norvegicus [10] = species on record: Rattus norvegicus; experiment: Biodistribution in rat hippocampus after 5 min time interval; assay type: ADME, organism-based; conditions: in vivo
Rattus norvegicus [11] = species on record: Rattus norvegicus; experiment: Biodistribution in rat heart after 60 min time interval; assay type: ADME, organism-based; conditions: in vivo, 1 h
Rattus norvegicus [12] = species on record: Rattus norvegicus; experiment: Biodistribution in rat heart after 5 min time interval; assay type: ADME, organism-based; conditions: in vivo
Rattus norvegicus [13] = species on record: Rattus norvegicus; experiment: Biodistribution in rat hippocampus after 90 min time interval; assay type: ADME, organism-based; conditions: in vivo, 1.5 h
Rattus norvegicus [14] = species on record: Rattus norvegicus; experiment: Biodistribution in rat testes after 90 min time interval; assay type: ADME, organism-based, Testis; conditions: in vivo, 1.5 h
Rattus norvegicus [15] = species on record: Rattus norvegicus; experiment: Biodistribution in rat post-CTX after 5 min time interval; assay type: ADME, organism-based; conditions: in vivo
Rattus norvegicus [16] = species on record: Rattus norvegicus; experiment: Biodistribution in rat anti-CTX after 15 min time interval; assay type: ADME, organism-based; conditions: in vivo, 0.25 h
Rattus norvegicus [17] = species on record: Rattus norvegicus; experiment: Biodistribution in rat trachea after 90 min time interval; assay type: ADME, organism-based; conditions: in vivo, 1.5 h
Rattus norvegicus [18] = species on record: Rattus norvegicus; experiment: Biodistribution in rat spleen after 15 min time interval; assay type: ADME, organism-based; conditions: in vivo, 0.25 h
Rattus norvegicus [19] = species on record: Rattus norvegicus; experiment: Biodistribution in rat trachea after 15 min time interval; assay type: ADME, organism-based; conditions: in vivo, 0.25 h
Rattus norvegicus [20] = species on record: Rattus norvegicus; experiment: Biodistribution in rat blood after 5 min time interval; assay type: ADME, organism-based; conditions: in vivo
Rattus norvegicus [21] = species on record: Rattus norvegicus; experiment: Biodistribution in rat hypothalamus after 30 min time interval; assay type: ADME, organism-based; conditions: in vivo, 0.5 h
Rattus norvegicus [22] = species on record: Rattus norvegicus; experiment: Biodistribution in rat blood after 60 min time interval; assay type: ADME, organism-based; conditions: in vivo, 1 h
Rattus norvegicus [23] = species on record: Rattus norvegicus; experiment: Biodistribution in rat kidney after 60 min time interval; assay type: ADME, organism-based; conditions: in vivo, 1 h
Rattus norvegicus [24] = species on record: Rattus norvegicus; experiment: Biodistribution in rat testes after 5 min time interval; assay type: ADME, organism-based, Testis; conditions: in vivo
Rattus norvegicus [25] = species on record: Rattus norvegicus; experiment: Biodistribution in rat adrenal after 90 min time interval; assay type: ADME, organism-based; conditions: in vivo, 1.5 h
Rattus norvegicus [26] = species on record: Rattus norvegicus; experiment: Biodistribution in rat spleen after 5 min time interval; assay type: ADME, organism-based; conditions: in vivo
Rattus norvegicus [27] = species on record: Rattus norvegicus; experiment: Biodistribution in rat plasma after 15 min time interval; assay type: ADME, organism-based; conditions: in vivo, 0.25 h
Rattus norvegicus [28] = species on record: Rattus norvegicus; experiment: Biodistribution in rat pituitary after 30 min time interval; assay type: ADME, organism-based, Pituitary gland; conditions: in vivo, 0.5 h
Rattus norvegicus [29] = species on record: Rattus norvegicus; experiment: Biodistribution in rat spleen after 90 min time interval; assay type: ADME, organism-based; conditions: in vivo, 1.5 h
Rattus norvegicus [30] = species on record: Rattus norvegicus; experiment: Biodistribution in rat adrenal after 60 min time interval; assay type: ADME, organism-based; conditions: in vivo, 1 h
Rattus norvegicus [31] = species on record: Rattus norvegicus; experiment: Biodistribution in rat hypothalamus after 90 min time interval; assay type: ADME, organism-based; conditions: in vivo, 1.5 h
Rattus norvegicus [32] = species on record: Rattus norvegicus; experiment: Biodistribution in rat cerebellem after 15 min time interval; assay type: ADME, organism-based, Cerebellum; conditions: in vivo, 0.25 h
Rattus norvegicus [33] = species on record: Rattus norvegicus; experiment: Biodistribution in rat striatum after 30 min time interval; assay type: ADME, organism-based; conditions: in vivo, 0.5 h
Rattus norvegicus [34] = species on record: Rattus norvegicus; experiment: Biodistribution in rat cerebellem after 90 min time interval; assay type: ADME, organism-based, Cerebellum; conditions: in vivo, 1.5 h
Rattus norvegicus [35] = species on record: Rattus norvegicus; experiment: Biodistribution in rat cerebellem after 30 min time interval; assay type: ADME, organism-based, Cerebellum; conditions: in vivo, 0.5 h
Rattus norvegicus [36] = species on record: Rattus norvegicus; experiment: Biodistribution in rat heart after 15 min time interval; assay type: ADME, organism-based; conditions: in vivo, 0.25 h
Rattus norvegicus [37] = species on record: Rattus norvegicus; experiment: Biodistribution in rat striatum after 90 min time interval; assay type: ADME, organism-based; conditions: in vivo, 1.5 h
Rattus norvegicus [38] = species on record: Rattus norvegicus; experiment: Biodistribution in rat hypothalamus after 15 min time interval; assay type: ADME, organism-based; conditions: in vivo, 0.25 h
Rattus norvegicus [39] = species on record: Rattus norvegicus; experiment: Biodistribution in rat liver after 90 min time interval; assay type: ADME, organism-based; conditions: in vivo, 1.5 h
Rattus norvegicus [40] = species on record: Rattus norvegicus; experiment: Biodistribution in rat spleen after 60 min time interval; assay type: ADME, organism-based; conditions: in vivo, 1 h
Rattus norvegicus [41] = species on record: Rattus norvegicus; experiment: Biodistribution in rat pons after 30 min time interval; assay type: ADME, organism-based; conditions: in vivo, 0.5 h
Rattus norvegicus [42] = species on record: Rattus norvegicus; experiment: Biodistribution in rat intestine after 30 min time interval; assay type: ADME, organism-based; conditions: in vivo, 0.5 h
Rattus norvegicus [43] = species on record: Rattus norvegicus; experiment: Biodistribution in rat striatum after 60 min time interval; assay type: ADME, organism-based; conditions: in vivo, 1 h
Rattus norvegicus [44] = species on record: Rattus norvegicus; experiment: Biodistribution in rat trachea after 30 min time interval; assay type: ADME, organism-based; conditions: in vivo, 0.5 h
Rattus norvegicus [45] = species on record: Rattus norvegicus; experiment: Biodistribution in rat hippocampus after 30 min time interval; assay type: ADME, organism-based; conditions: in vivo, 0.5 h
Rattus norvegicus [46] = species on record: Rattus norvegicus; experiment: Biodistribution in rat kidney after 15 min time interval; assay type: ADME, organism-based; conditions: in vivo, 0.25 h
Rattus norvegicus [47] = species on record: Rattus norvegicus; experiment: Biodistribution in rat hippocampus after 60 min time interval; assay type: ADME, organism-based; conditions: in vivo, 1 h
Rattus norvegicus [48] = species on record: Rattus norvegicus; experiment: Biodistribution in rat muscle after 15 min time interval; assay type: ADME, organism-based, Muscle tissue; conditions: in vivo, 0.25 h
Rattus norvegicus [49] = species on record: Rattus norvegicus; experiment: Biodistribution in rat lung after 30 min time interval; assay type: ADME, organism-based; conditions: in vivo, 0.5 h
Rattus norvegicus [50] = species on record: Rattus norvegicus; experiment: Biodistribution in rat kidney after 30 min time interval; assay type: ADME, organism-based; conditions: in vivo, 0.5 h

In the case of [11CH3]Oc1ccc(CCCn2ncc3c2nc(N)n2nc(-c4ccco4)nc32)cc1, the ID/g (Rattus norvegicus [1]) is reported as 0.02%, the ID/g (Rattus norvegicus [2]) is reported as 0.52% and the ID/g (Rattus norvegicus [3]) is reported as 0.09%. It also gave an ID/g (Rattus norvegicus [4]) of 0.1%, an ID/g (Rattus norvegicus [5]) of 0.02% and an ID/g (Rattus norvegicus [6]) of 0.02%. For the same compound, the ID/g (Rattus norvegicus [7]) was 0.18%, the ID/g (Rattus norvegicus [8]) was 0.05% and the ID/g (Rattus norvegicus [9]) was 0.06%. For the same compound, the ID/g (Rattus norvegicus [10]) was 0.17%, the ID/g (Rattus norvegicus [11]) was 0.04% and the ID/g (Rattus norvegicus [12]) was 0.26%. It also gave an ID/g (Rattus norvegicus [13]) of 0.02%, an ID/g (Rattus norvegicus [14]) of 0.03% and an ID/g (Rattus norvegicus [15]) of 0.19%. For the same compound, the ID/g (Rattus norvegicus [16]) was 0.12%, the ID/g (Rattus norvegicus [17]) was 0.03% and the ID/g (Rattus norvegicus [18]) was 0.12%. The ID/g (Rattus norvegicus [19]) was 0.12%, the ID/g (Rattus norvegicus [20]) was 0.13% and the ID/g (Rattus norvegicus [21]) was 0.04%. For the same compound, the ID/g (Rattus norvegicus [22]) was 0.03%, the ID/g (Rattus norvegicus [23]) was 0.13% and the ID/g (Rattus norvegicus [24]) was 0.12%. For the same compound, the ID/g (Rattus norvegicus [25]) was 0.14%, the ID/g (Rattus norvegicus [26]) was 0.18% and the ID/g (Rattus norvegicus [27]) was 0.13%. The ID/g (Rattus norvegicus [28]) was 0.05%, the ID/g (Rattus norvegicus [29]) was 0.05% and the ID/g (Rattus norvegicus [30]) was 0.13%. It also gave an ID/g (Rattus norvegicus [31]) of 0.02%, an ID/g (Rattus norvegicus [32]) of 0.1% and an ID/g (Rattus norvegicus [33]) of 0.2%. For the same compound, the ID/g (Rattus norvegicus [34]) was 0.02%, the ID/g (Rattus norvegicus [35]) was 0.05% and the ID/g (Rattus norvegicus [36]) was 0.15%. It also gave an ID/g (Rattus norvegicus [37]) of 0.04%, an ID/g (Rattus norvegicus [38]) of 0.07% and an ID/g (Rattus norvegicus [39]) of 0.37%. For the same compound, the ID/g (Rattus norvegicus [40]) was 0.06%, the ID/g (Rattus norvegicus [41]) was 0.06% and the ID/g (Rattus norvegicus [42]) was 0.25%. The ID/g (Rattus norvegicus [43]) was 0.06%, the ID/g (Rattus norvegicus [44]) was 0.09% and the ID/g (Rattus norvegicus [45]) was 0.04%. It also gave an ID/g (Rattus norvegicus [46]) of 0.49%, an ID/g (Rattus norvegicus [47]) of 0.02% and an ID/g (Rattus norvegicus [48]) of 0.11%. For the same compound, the ID/g (Rattus norvegicus [49]) was 0.2% and the ID/g (Rattus norvegicus [50]) was 0.24%.
